We go through 2 molecules from patent US20260345530A1, “Use of a Therapeutic Agent with Sodium-Hydrogen Antiporter 1 Inhibitory Activity for the Treatment and Prevention of Diseases Associated with Chronic Fatigue, Exhaustion and/or Exertional Intolerance” (MITODICURE GMBH, priority 2022, published 2026).

For test [1], the system named is isolated rat soleus muscle. Description: Ex vivo model of residual muscle force (fatigue) in isolated rat soleus muscle after sodium overload by high NaCl (200 mM) buffer. The settings on record: for residual contractile force compared with baseline control: drug concentrations of 30 to 500 nM, added 10 min before 30 min in 200 mM NaCl buffer, then stimulation in physiological NaCl buffer, 30 °C, pH 7.4, controls without inhibitor 10% to 20%; for effect on rat soleus muscle force decline: high NaCl (200 mM) protocol, result in words. On the set-up: species or system rat (female Sprague Dawley). An excerpt:
The claim of this patent is that NHE1 inhibitors can improve disturbed body function and symptoms of ME/CFS, as an example of diseases associated with chronic fatigue (DACF). Muscular fatigue and loss of force (e.g., loss of handgrip strength) is a hallmark in ME/CFS patients. A main target of NHE1 inhibition is the skeletal muscle whose energetic function is deeply disturbed in ME/CFS and which is presumed to be very important in the symptomatology of ME/CFS. NHE1 activity plays a key role in the development of the disturbances by a rise in intramuscular sodium that finally leads to calcium overload. The latter causes a deep functional energetic disturbance or damage. The isolated rat muscle either soleus muscle or extensor digitorum longus muscle is a well-characterized and well-validated model for the study of the function of ion exchangers. The isolated rat soleus muscle is particularly appropriate for experiments ex vivo as it is very thin so that there is no need for blood supply. […] In this experimental setting, a high NaCl concentration buffer causes sodium influx to disturb and decrease excitability and to disturb calcium homeostasis to subsequently reduce muscle force. Inhibition of the NHE1, which exchanges one proton for the uptake of one sodium ion, reduces sodium entry and overload. Prevention or diminution of a loss of muscular force in this procedure indicates effective inhibition of NHE1 by a test compound with the described mode of action of NHE1-inhibition.
The decline in force in the soleus muscle can be considered as muscular fatigue and related to the loss of hand grip muscular strength in ME/CFS patients. The described ex vivo model is suited for testing the effect of NHE1 inhibitors and in particular their effect on force generation disturbed by mechanisms that worsen excitability or the energetic situation or calcium homeostasis via the sodium-calcium-exchanger. High NaCl in a buffer (200 mM) is used to cause intracellular sodium loading leading to a decline in contractile force.
The resulting decline in muscular force is considered as muscular fatigue. In the absence of electrical stimulation avoiding sodium entry by sodium channels the sodium influx during high NaCl exposure is due to the NHE1. Inhibition of NHE1 can prevent sodium overload and a decline in muscular force and fatigue.
Muscle preparation and incubation: Female Sprague Dawley rats of 5 weeks of age are used. After isoflurane anesthesia and cervical dislocation the intact soleus muscles of the animals is dissected. […]
Force measurement: The experimental set-up for force measurements allows for the simultaneous recordings from 6 muscles in separate incubation chambers in parallel. Force is recorded and stored with a Notocord HEM data acquisition system. […]

The test system of test [2] is myocardial infarction and dystrophic cardiomyopathy including DMD. The conditions noted are these: animal models; Ghaleh et al. doi: 10.1016/j.ijcard.2020.03.031; cited from earlier work.
For the next test, the system named is Ca2^+ and Na+ overload. The conditions noted are these: preclinical; Chahine et al. doi: 10.1016/j.yjmcc.2005.01.003; Bkaily and Jacques doi: 10.1139/cjpp-2017-0265; cited from earlier work.

Turning to `Cc1cc(S(C)(=O)=O)c(S(C)(=O)=O)cc1C(=O)N=C(N)N` [Rimeporide, N-(4,5-bismethanesulfonyl-2-methylbenzoyl)guanidine], in test [1], the “residual contractile force compared with baseline control” value was 50-70% and the “effect on rat soleus muscle force decline” value is “diminished the loss of force”. The cardioprotective effects result in test [2] is listed as “cardioprotective effects”. Further, the “effect in preventing the deleterious effects of Ca2^+ and Na+ overload” value in the test with Ca2^+ and Na+ overload is “beneficial effects”.

On to `CC(C)c1ccc(C(=O)NC(=N)N)cc1S(C)(=O)=O` [Cariporide], for which, in test [1], the “residual contractile force compared with baseline control” value is on record as 50-70% and the “effect on rat soleus muscle force decline” value is “diminished the loss of force”. Further, in test [2], the cardioprotective effects entry is “cardioprotective effects”. Also, the “effect in preventing the deleterious effects of Ca2^+ and Na+ overload” value with Ca2^+ and Na+ overload is recorded as “beneficial effects”.
